According to ChEMBL document CHEMBL3885881, “DrugMatrix”:

Species on record: Rattus norvegicus
Experiment: DrugMatrix - Regimen: Daily Repeat
Type: toxicity, organism-based, Sprague-Dawley
Set-up: regimen Daily Repeat, gender Male, age 6-8 weeks
Conditions: in vivo, sc, route subcutaneous, […]; for ABSOLUTE BASOPHIL / ABSOLUTE EOSINOPHIL / ABSOLUTE LYMPHOCYTE / ABSOLUTE MONOCYTE / ABSOLUTE SEGMENTED NEUTROPHIL / BASOPHIL / EOSINOPHIL / ERYTHROCYTE COUNT / HEMATOCRIT / HEMOGLOBIN / LEUKOCYTE COUNT / LYMPHOCYTE / MEAN CORPUSCULAR HEMOGLOBIN / MEAN CORPUSCULAR VOLUME / MONOCYTE / NEUTROPHIL / NUCLEATED RED BLOOD CELLS / PLATELET COUNT: tissue Blood; for ALANINE AMINOTRANSFERASE / ALBUMIN / ALKALINE PHOSPHATASE / ASPARTATE AMINOTRANSFERASE / BLOOD UREA NITROGEN / CARBON DIOXIDE / CHLORIDE / CHOLESTEROL / CREATINE PHOSPHOKINASE / CREATININE / GLUCOSE / LACTATE DEHYDROGENASE / LIPASE / PHOSPHORUS / POTASSIUM / SODIUM / TOTAL BILIRUBIN / TOTAL PROTEIN / URIC ACID: tissue Plasma
[1] = 3 mg/kg, 72 h, dose level Low, time 3 day
[2] = 3 mg/kg, 120 h, dose level Low, time 5 day
[3] = 30 mg/kg, 72 h, dose level M2, time 3 day
[4] = 30 mg/kg, 120 h, dose level M2, time 5 day

Structure (SMILES): CC(C)(C)CC(C)(C)c1ccc(OCCOCC[N+](C)(C)Cc2ccccc2)cc1.[Cl-] [BENZETHONIUM CHLORIDE]
- ABSOLUTE BASOPHIL [1]: 0 CELLS/uL
- ABSOLUTE EOSINOPHIL [1]: 41 CELLS/uL
- ABSOLUTE LYMPHOCYTE [1]: 15440.33 CELLS/uL
- ABSOLUTE MONOCYTE [1]: 415 CELLS/uL
- ABSOLUTE SEGMENTED NEUTROPHIL [1]: 1437 CELLS/uL
- BASOPHIL [1]: 0%
- EOSINOPHIL [1]: 0.33%
- ERYTHROCYTE COUNT [1]: 5.3 x10E6/uL
- HEMATOCRIT [1]: 33.43%
- HEMOGLOBIN [1]: 12.63 G/DL
- LEUKOCYTE COUNT [1]: 17.33 x10E3/uL
- LYMPHOCYTE [1]: 89.33%
- MEAN CORPUSCULAR HEMOGLOBIN [1]: 23.87 pg
- MEAN CORPUSCULAR VOLUME [1]: 63.13 fL
- MONOCYTE [1]: 2.33%
- NEUTROPHIL [1]: 8%
- NUCLEATED RED BLOOD CELLS [1]: 0 /100WBC
- PLATELET COUNT [1]: 1329.67 x10E3/uL
- ALANINE AMINOTRANSFERASE [1]: 45 u/L
- ALBUMIN [1]: 3.7 G/DL
- ALKALINE PHOSPHATASE [1]: 323.67 u/L
- ASPARTATE AMINOTRANSFERASE [1]: 74 u/L
- BLOOD UREA NITROGEN [1]: 15.67 mg/dL
- CARBON DIOXIDE [1]: 28 mmol/L
- CHLORIDE [1]: 101 MEQ/L
- CHOLESTEROL [1]: 83.33 mg/dL
- CREATINE PHOSPHOKINASE [1]: 130.67 u/L
- CREATININE [1]: 0.18 mg/dL
- GLUCOSE [1]: 149.33 mg/dL
- LACTATE DEHYDROGENASE [1]: 78.67 u/L
- LIPASE [1]: 8.67 u/L
- PHOSPHORUS [1]: 11.23 mg/dL
- POTASSIUM [1]: 6.78 MEQ/L
- SODIUM [1]: 142.67 MEQ/L
- TOTAL BILIRUBIN [1]: 0.23 mg/dL
- TOTAL PROTEIN [1]: 5.93 G/DL
- URIC ACID [1]: 1.53 mg/dL
- ABSOLUTE BASOPHIL [2]: 0 CELLS/uL
- ABSOLUTE EOSINOPHIL [2]: 149.33 CELLS/uL
- ABSOLUTE LYMPHOCYTE [2]: 16956.67 CELLS/uL
- ABSOLUTE MONOCYTE [2]: 380.67 CELLS/uL
- ABSOLUTE SEGMENTED NEUTROPHIL [2]: 2446.67 CELLS/uL
- BASOPHIL [2]: 0%
- EOSINOPHIL [2]: 0.67%
- ERYTHROCYTE COUNT [2]: 5.5 x10E6/uL
- HEMATOCRIT [2]: 34.13%
- HEMOGLOBIN [2]: 12.67 G/DL
- LEUKOCYTE COUNT [2]: 19.93 x10E3/uL
- LYMPHOCYTE [2]: 85.33%
- MEAN CORPUSCULAR HEMOGLOBIN [2]: 23 pg
- MEAN CORPUSCULAR VOLUME [2]: 62.03 fL
- MONOCYTE [2]: 2%
- NEUTROPHIL [2]: 12%
- NUCLEATED RED BLOOD CELLS [2]: 0 /100WBC
- PLATELET COUNT [2]: 1520.67 x10E3/uL
- ALANINE AMINOTRANSFERASE [2]: 63 u/L
- ALBUMIN [2]: 3.47 G/DL
- ALKALINE PHOSPHATASE [2]: 275 u/L
- ASPARTATE AMINOTRANSFERASE [2]: 71.67 u/L
- BLOOD UREA NITROGEN [2]: 14.67 mg/dL
- CARBON DIOXIDE [2]: 27.33 mmol/L
- CHLORIDE [2]: 103 MEQ/L
- CHOLESTEROL [2]: 70.67 mg/dL
- CREATINE PHOSPHOKINASE [2]: 560.33 u/L
- CREATININE [2]: 0.23 mg/dL
- GLUCOSE [2]: 152.67 mg/dL
- LACTATE DEHYDROGENASE [2]: 156.67 u/L
- LIPASE [2]: 10 u/L
- PHOSPHORUS [2]: 11.23 mg/dL
- POTASSIUM [2]: 7.21 MEQ/L
- SODIUM [2]: 144.55 MEQ/L
- TOTAL BILIRUBIN [2]: 0.17 mg/dL
- TOTAL PROTEIN [2]: 5.73 G/DL
- URIC ACID [2]: 1.53 mg/dL
- ABSOLUTE BASOPHIL [3]: 0 CELLS/uL
- ABSOLUTE EOSINOPHIL [3]: 0 CELLS/uL
- ABSOLUTE LYMPHOCYTE [3]: 10787.33 CELLS/uL
- ABSOLUTE MONOCYTE [3]: 579.67 CELLS/uL
- ABSOLUTE SEGMENTED NEUTROPHIL [3]: 1766.33 CELLS/uL
- BASOPHIL [3]: 0%
- EOSINOPHIL [3]: 0%
- ERYTHROCYTE COUNT [3]: 5.13 x10E6/uL
- HEMATOCRIT [3]: 31.77%
- HEMOGLOBIN [3]: 11.87 G/DL
- LEUKOCYTE COUNT [3]: 13.13 x10E3/uL
- LYMPHOCYTE [3]: 83%
- MEAN CORPUSCULAR HEMOGLOBIN [3]: 23.13 pg
- MEAN CORPUSCULAR VOLUME [3]: 61.93 fL
- MONOCYTE [3]: 4.33%
- NEUTROPHIL [3]: 12.67%
- NUCLEATED RED BLOOD CELLS [3]: 0 /100WBC
- PLATELET COUNT [3]: 981 x10E3/uL
- ALANINE AMINOTRANSFERASE [3]: 24.33 u/L
- ALBUMIN [3]: 2.63 G/DL
- ALKALINE PHOSPHATASE [3]: 269 u/L
- ASPARTATE AMINOTRANSFERASE [3]: 71.67 u/L
- BLOOD UREA NITROGEN [3]: 15.33 mg/dL
- CARBON DIOXIDE [3]: 21.67 mmol/L
- CHLORIDE [3]: 101 MEQ/L
- CHOLESTEROL [3]: 45 mg/dL
- CREATINE PHOSPHOKINASE [3]: 122.67 u/L
- CREATININE [3]: 0.15 mg/dL
- GLUCOSE [3]: 140.67 mg/dL
- LACTATE DEHYDROGENASE [3]: 116.67 u/L
- LIPASE [3]: 7 u/L
- PHOSPHORUS [3]: 11.27 mg/dL
- POTASSIUM [3]: 5.61 MEQ/L
- SODIUM [3]: 142.5 MEQ/L
- TOTAL BILIRUBIN [3]: 0.1 mg/dL
- TOTAL PROTEIN [3]: 5.93 G/DL
- URIC ACID [3]: 2.4 mg/dL
- ABSOLUTE BASOPHIL [4]: 0 CELLS/uL
- ABSOLUTE EOSINOPHIL [4]: 0 CELLS/uL
- ABSOLUTE LYMPHOCYTE [4]: 12245 CELLS/uL
- ABSOLUTE MONOCYTE [4]: 1299.67 CELLS/uL
- ABSOLUTE SEGMENTED NEUTROPHIL [4]: 8588.67 CELLS/uL
- BASOPHIL [4]: 0%
- EOSINOPHIL [4]: 0%
- ERYTHROCYTE COUNT [4]: 4.82 x10E6/uL
- HEMATOCRIT [4]: 29.43%
- HEMOGLOBIN [4]: 11.43 G/DL
- LEUKOCYTE COUNT [4]: 22.13 x10E3/uL
- LYMPHOCYTE [4]: 55%
- MEAN CORPUSCULAR HEMOGLOBIN [4]: 23.73 pg
- MEAN CORPUSCULAR VOLUME [4]: 61.07 fL
- MONOCYTE [4]: 6%
- NEUTROPHIL [4]: 39%
- NUCLEATED RED BLOOD CELLS [4]: 0 /100WBC
- PLATELET COUNT [4]: 1372 x10E3/uL
- ALANINE AMINOTRANSFERASE [4]: 31.67 u/L
- ALBUMIN [4]: 2.27 G/DL
- ALKALINE PHOSPHATASE [4]: 363.33 u/L
- ASPARTATE AMINOTRANSFERASE [4]: 89.33 u/L
- BLOOD UREA NITROGEN [4]: 11.67 mg/dL
- CARBON DIOXIDE [4]: 29.33 mmol/L
- CHLORIDE [4]: 101.67 MEQ/L
- CHOLESTEROL [4]: 41.33 mg/dL
- CREATINE PHOSPHOKINASE [4]: 166.67 u/L
- CREATININE [4]: 0.11 mg/dL
- GLUCOSE [4]: 117.33 mg/dL
- LACTATE DEHYDROGENASE [4]: 105.33 u/L
- LIPASE [4]: 7 u/L
- PHOSPHORUS [4]: 10.93 mg/dL
- POTASSIUM [4]: 6.02 MEQ/L
- SODIUM [4]: 143.77 MEQ/L
- TOTAL BILIRUBIN [4]: 0.1 mg/dL
- TOTAL PROTEIN [4]: 5.3 G/DL
- URIC ACID [4]: 1.83 mg/dL
